Reference: paper PMC12067741, “Inhibition of SOD1 trimerization is a novel drug target for ALS disease” (Translational Neurodegeneration, 2025)
Where two headings read alike, the source gives them in different places.

Experiments:
[1] = Metabolic stability in liver microsomes; type: in vitro ADME; settings: SD rat liver microsomes
[2] = Metabolic stability in liver microsomes; type: in vitro ADME; settings: human liver microsomes
[3] = Plasma stability; type: in vitro ADME; settings: beagle dog plasma, after 120 min of incubation
[4] = Plasma stability; type: in vitro ADME; settings: SD rat plasma, after 120 min of incubation
[5] = system: TDP-43 and WT-SOD1; experiment: WT-SOD1 and TDP-43 aggregation induced by ectopic TDP-43 expression in SK-N-SH cells; type: cell-based; settings: TDP-43 overexpression
From the text: Cells with SOD1 inclusions (white arrows; strong intensity of SOD1) were counted and the percentages are shown with standard deviation. n = 3 independent experiments; two-tailed Student’s t-test. Scale bar, 10 μm. d, e PRG-A-04 reduced misfolding of MT-SOD1. d The affinity of misfolding-specific antibody to MT-SOD1 was inhibited by PRG-A-04. e Quantification of band intensity with Image J software. Mean ± SD. A.U., arbitrary units. *P < 0.05, **P < 0.01. f PRG-A-04 reduced the MT-SOD1 recombinant protein-induced increase of self-oligomerization in vitro. g WT-SOD1 and TDP-43 oligomerization induced by ectopic TDP-43 expression was abolished by PRG-A-04 treatment. h–k WT-SOD1 aggregation induced by ectopic TDP-43 expression was reduced by PRG-A-04 treatment. […] Scale bars, 10 μm. i PRG-A-04 reduced WT-SOD1 inclusions triggered by TDP-43 overexpression. Inclusion-positive cells (white arrows in h, strong intensity of SOD1) were counted and the percentages are shown as mean ± SD. j PRG-A-04 reduced the ratio of cells with cytoplasmic TDP-43 inclusions to tdtomato-positive ones. Cells with cytoplasmic TDP-43 (white arrows) among tdtomato positive ones were counted in randomly selected fields by photomicrographs and the cytosol/nucleus ratio was shown with ± SD. k PRG-A-04 reduced cytoplasmic TDP-43 inclusion. Mean ± SD. *P < 0.05, **P < 0.01, ***P < 0.005 […]

[6] = system: MT-SOD1 recombinant protein; experiment: In vitro oligomerization of recombinant GST-SOD1 (non-denaturing); type: biochemical; settings: GST-SOD1 4 μg/mL, PRG-A-04 10 μmol/L, 30 min, room temperature
Description: For detecting the oligomerization assay promoted by mutant-type (MT)-SOD1 recombinant proteins in vitro, GST-SOD1 recombinant protein (4 μg/mL) was incubated with PRG-A-04 (10 μmol/L) for 30 min at room temperature in PBS and the samples were mixed with non-denaturing sample buffer. Those were separated in SDS-PAGE gel without boiling.

[7] = Pharmacokinetics in mice (compound screening, IV/PO); type: in vivo, mouse; settings: mouse (compound screening), PO3, 20 mg/kg
Description: (§1) Fig. S1. Optimized inhibitor reduces SOD1 aggregation. a, Mutant SOD1s induced WT-SOD1 aggregation. Testing the selected chemicals to check the inhibitory effect on SOD1 aggregation .HEK293 cells were transfected with MT-SOD1 vectors (A4V, G 93 A) and treated with selected chemicals (5 mM). After incubation, transfected cells were harvested with TNNI buffer and fixed with 0.04% glutaraldehyde (Glu) for 30min. Samples were separated using SDS-PAGE. b-c, PRG-A-04 inhibited SOD1 inclusions in SK-N-SH cells. (b) Cells expressing MT-SOD1 vectors were treated with PRG-A-04 (5 mM) for 24 hr. After incubation, cells were fixed with 4 % PFA and observed under the fluorescence microscope. (c) Cells with SOD1 inclusions (white arrows; strong intensity of SOD1) were counted by photomicrographs and the percentages were shown with standard deviation (SD). For cell counting, ten fluorescence images were randomly selected. Counting of cells were performed by three independent observers, who were blinded to transfection or chemical treatment group; two-tailed Student’s t-test. NS; Not significant, ****P < 0.001, d, PRG-A- […]
degradationin blood as well as gastro-intestinal tract.IV; intravenous injected group, PO; Per Os administrated group e, […]
show cytotoxicity. To know the toxic effect of PRG-A-04 , human normal fibroblast (f) and neuron cells (g) were incubated with PRG -A-04 for 48 hr dose dependently and measured the viability through MTT assay .“Con” means Dimethyl sulfoxide (DMSO) -treated control . The data are normalized to DMSO-treated cells. n=3 independent experiments; two-tailed Student’s t-test.NS; Not significant, *P < 0.05, **P < 0.01, ***P < 0.005.

[8] = Plasma stability; type: in vitro ADME; settings: CD-1 mouse plasma, after 120 min of incubation
[9] = target: CYP 1A2 (Homo sapiens, UniProt P05177); experiment: CYP inhibition (direct); type: in vitro ADME; settings: CYP 1A2, direct inhibition
CYP 1A2, sequence (P05177 whole entry): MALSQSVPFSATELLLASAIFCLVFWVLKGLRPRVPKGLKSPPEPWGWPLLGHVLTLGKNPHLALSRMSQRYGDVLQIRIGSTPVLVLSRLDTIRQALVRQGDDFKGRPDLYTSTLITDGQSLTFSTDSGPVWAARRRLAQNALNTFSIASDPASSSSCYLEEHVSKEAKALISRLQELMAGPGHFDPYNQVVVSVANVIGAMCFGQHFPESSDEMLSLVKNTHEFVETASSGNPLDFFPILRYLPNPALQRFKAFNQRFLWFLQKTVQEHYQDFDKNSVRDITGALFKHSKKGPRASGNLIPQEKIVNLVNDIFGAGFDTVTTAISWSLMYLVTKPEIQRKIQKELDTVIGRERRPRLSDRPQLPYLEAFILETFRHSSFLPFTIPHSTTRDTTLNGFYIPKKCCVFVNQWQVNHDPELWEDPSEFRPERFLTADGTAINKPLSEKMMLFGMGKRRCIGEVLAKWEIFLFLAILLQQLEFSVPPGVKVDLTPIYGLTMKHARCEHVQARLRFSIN
From the text: (§2) Fig. S8. Preclinical data of PRG-A-04 a Plasma protein binding b CYP inhibition(direct) […]
(§3) d Mouse Brain Tissue penetration
(§4) For the convenience of calculation, […]

[10] = system: human normal fibroblast; experiment: Cell viability (MTT); type: cell-based; settings: 48 hr
Description: (§5) Cells were incubated with 0.5 mg/mL of MTT solution (475989; Merck, Darmstadt, Germany) for 4 h at 37 °C. After removing excess solution and washing with PBS, the precipitated materials were dissolved in 200 μL DMSO and quantified by measuring absorbance at 540 nm.
as §1, with “(b) Cells expressing MT-SOD1 vectors were treated with PRG-A-04 (5 mM) for 24 hr.” left out, “selected.” for “selected. Counting of cells were performed by three independent observers, who were blinded to transfection or chemical treatment group; two-tailed Student’s t-test. NS; Not significant, ****P < 0.001, d, PRG-A-”
(§6) show cytotoxicity. To know the toxic effect of PRG-A-04 , human normal fibroblast (f) and neuron cells (g) were incubated with PRG -A-04 for 48 hr dose dependently and measured the viability through MTT assay .“Con” means Dimethyl sulfoxide (DMSO) -treated control . […]

[11] = system: SK-N-SH cells; experiment: Cell viability (MTT); type: cell-based; settings: neuron cell line, 48 hr
Description: as §5
as §1, with “(b) Cells expressing MT-SOD1 vectors were treated with PRG-A-04 (5 mM) for 24 hr.” left out, “selected.” for “selected. Counting of cells were performed by three independent observers, who were blinded to transfection or chemical treatment group; two-tailed Student’s t-test. NS; Not significant, ****P < 0.001, d, PRG-A-”
as §6

[12] = mouse, in vivo, po, 20 mg/kg
From the text: Next, we checked the basic in vitro ADME test including pharmacokinetics, plasma protein binding, CYP (Cytochrome P450) inhibition, metabolic stability and blood–brain barrier (BBB) permeability. […] We also plan to test safety panel assay in the future to obtain safety data for the drug.
as §2, §3, §4

[13] = mouse, in vivo, iv, 1 mg/kg
[14] = Plasma stability; type: in vitro ADME; settings: human plasma, after 120 min of incubation

For COc1cc(C=CCOC2Cc3cc4ccc(=O)oc4cc3OC2(C)C)ccc1[N+](=O)[O-] (stereo not shown) [PRG-A-04], the “extent of metabolism in liver microsomes” value [1] was “highly metabolized”, the “extent of metabolism in liver microsomes” value [2] was “moderately metabolized” and the “stability in plasma” value [3] was “stable”. For the same compound, the “stability in plasma” value [4] was “stable”, the “cytosolic mislocalization of TDP-43” value [5] was “significantly reduced” and the “effect on TDP-43 and SOD1 aggregation” value [5] was “inhibitory effect on TDP-43 and SOD1 aggregation”. For the same compound, the “effect on oligomerization of recombinant MT-SOD1 in vitro” value [6] was “inhibited the oligomerizing or aggregation property of MT-SOD1”, the bioavailability [7] was 63.78% and the “stability in plasma” value [8] was “stable”. For the same compound, the IC50 [9] was greater than 10 µM, the “cytotoxicity” value [10] was “without severe cytotoxicity” and the “cytotoxicity” value [11] was “without severe cytotoxicity”. For the same compound, the “Brain/Plasma Ratio, M01+3n” value ([12]; 0.5 h) was 2.18, the “Brain/Plasma Ratio, M02+3n” value ([12]; 0.5 h) was 1.54 and the “Brain/Plasma Ratio, M03+3n” value ([12]; 0.5 h) was 1.90. The “Brain/Plasma Ratio, Mean” value ([12]; 0.5 h) was 1.87, the “Brain/Plasma Ratio, M01+3n” value ([12]; 1 h) was 2.29 and the “Brain/Plasma Ratio, M02+3n” value ([12]; 1 h) was 2.02. The “Brain/Plasma Ratio, M03+3n” value ([12]; 1 h) was 2.02, the “Brain/Plasma Ratio, M01+3n” value ([12]; 12 h) was 1.92 and the “Brain/Plasma Ratio, M02+3n” value ([12]; 12 h) was 1.87. For the same compound, the “Brain/Plasma Ratio, M03+3n” value ([12]; 12 h) was 1.71, the “Brain/Plasma Ratio, Mean” value ([12]; 12 h) was 1.84 and the AUC0-inf [13] was 1857.00 ng·h/mL. For the same compound, the AUC0-last [13] was 1826.50 ng·h/mL, the “C0 (or) Cmax” value [13] was 1272.33 ng/mL and the T1/2 [13] was 4.12 h. For the same compound, the “stability in plasma” value [14] was “stable”.
